Values quoted from earlier work in paper PMC4832308 (Cancer, 2015).

Columns and labels:
[1] = tested on: patients; conditions: phase 1 study; cited from earlier work
[2] = tested on: patients; conditions: phase 1 study, cited from earlier work

| SMILES | best response SD rate [1] | patients with best response SD [1] | patients with a response ([2]; MM) | response rate ([2]; MM) | response duration ([2]; patient with MM) | patients with SD [2] |
| --- | --- | --- | --- | --- | --- | --- |
| COc1ccc(-c2ccc3c(N4CCOC[C@@H]4C)nc(N4CCOC[C@@H]4C)nc3n2)cc1CO [AZD8055] | 14.3% | 7 patients | – | – | – | – |
| CC(C)n1nc(-c2ccc3oc(N)nc3c2)c2c(N)ncnc21 [MLN0128] | – | – | 1 patient | 4% | ~2 months | 15 patients |
